What was measured:
[1] = tested on: fatty acid synthesis in Plasmodium falciparum; settings: cited from earlier work
[2] = human, in vivo, 552 mg
Procedure: Four volunteers were invited randomly to take part in the trial. The volunteers were in a rested and fasted state when the trial began. A single dose of 552 mg (two soft gelatine capsules) was administered and blood samples were drawn 15 times over 36 hours.
Quantitative analysis of the blood samples was conducted using an HPLC method developed and validated at the Research Institute for Industrial Pharmacy. Results of the analysis were evaluated statistically and values for AUC, Cmax and tmax were obtained.
A) Chromatographic Condition: • Analytical instrument: HP1050 series HPLC with a pump, autosampler, UV detector and Chemstation Rev.
B) Sample Preparation with enzymatic hydrolysis: • 1. Pipet 1 ml of plasma into a 5 ml siliconised glass test tube. • 2. Add 1 ml of 0.2 M sodium acetate-acetic acid buffer, pH 5.0. • 3. […] Vortex mix for 10 seconds, seal and incubate at 40° C. for 12 hours. • 5. Add 0.5 ml of the internal standard solution and centrifuge at 14000 rpm (4900 RCF) for 10 minutes before applying to the SPE columns.
C) Internal Standard Solution: • 1. Weight approximately 5 mg of acenaphthene accurately and dissolve in 250 ml of solvent. • 2. Add 0.5 ml of this solution to all standards and samples.
D) Standard Solution: • 1. […] Make further dilutions of 5 ml to 100 ml and 10 ml to 50 ml in water to obtain 80, 16- and 4.0 μg/ml stock solutions.
3. […]

[3] = topical and oral; Bhargava & Leonard 1996; cited from earlier work
[4] = cited from earlier work
[5] = Solubility of triclosan; type: physicochemical
[6] = tested on: malaria parasites; settings: Surolia 2001, cited from earlier work

For `Oc1cc(Cl)ccc1Oc1ccc(Cl)cc1Cl` [triclosan], the “concentration sufficient for 50% inhibition of fatty acid synthesis” value ([1]; Surolia and Surolia (2001:168), printed in brackets beside the μM value) is listed as 580 ng/mL, the IC50 ([1]; read-out: concentration sufficient for 50% inhibition of fatty acid synthesis, Surolia and Surolia (2001:168)) is listed as 3 µM and the bioavailability [2] is listed as “good in three of the four volunteers”. For the same molecule, the “safety in toxicity studies” value [3] was “safe topically as well as orally”, the solubility in water [4] was “very low solubility in water” and the solubility in oils [5] was “very soluble in oils”. For the same molecule, the “activity against malaria parasites” value [6] was “active against malaria parasites” and the effective dose ([6]; malaria) was 28 to 38 mg/kg.
